Consider three molecules from ChEMBL document CHEMBL6153110, “Peptide Double-Stapling and Arginine N-Glycosylation Triggered the Development of Therapeutic Antimicrobial Peptides Capable of Killing Drug-Resistant Bacteria in Mice” (J Med Chem, 2025).

In one series the test system is Klebsiella pneumoniae. The series is described as follows: Antimicrobial activity against Klebsiella pneumoniae ATCC 13883 assessed as growth inhibition measured after 8 hrs incubation by standard broth dilution assay. Format: functional.
A further series relates to Staphylococcus aureus. The series is described as follows: Antimicrobial activity against methicillin-resistant Staphylococcus aureus ATCC 43300 assessed as growth inhibition measured after 8 hrs incubation by standard broth dilution assay. Format: functional.
A further series has as its system Pseudomonas aeruginosa. The series is described as follows: Antimicrobial activity against Pseudomonas aeruginosa ATCC 27853 assessed as growth inhibition measured after 8 hrs incubation by standard broth dilution assay. Format: functional.
In a further series the test system is Streptococcus pneumoniae. The series is described as follows: Antimicrobial activity against Streptococcus pneumoniae ATCC 49619 assessed as growth inhibition measured after 8 hrs incubation by standard broth dilution assay. In kind it is functional.
A short description of series [1]: Hemolytic activity in BALB/c mouse red blood cells assessed as hemolysis incubated for 1 hrs. In kind it is toxicity, cell-based, Erythrocyte. As to conditions: read-out: HD50.

Converted amounts (≈) assume the structure as drawn. Starred links: 1 amine or outer side, 2 acyl side, 3 side chain; linkers in the order of their positions; H or OH if unused. Positions of bridges follow the written chain, without caps; N, C: chain ends. Non-standard residues stand in square brackets, D forms with d. Residues, ends and D or L forms follow the SMILES beside them. X1 = N=C(NCCC[C@H](N[*:1])C(=O)[*:2])N[C@@H]1O[C@H](CO)[C@@H](O[C@H]2O[C@H](CO)[C@@H](O[C@H]3O[C@H](CO)[C@@H](O)[C@H](O)[C@H]3O)[C@H](O)[C@H]2O)[C@H](O)[C@H]1O; S5 = C=CCCC[C@](C)(N)C(=O)O

In the case of `CC(=O)N[C@@H](CCCCN)C(=O)N[C@@H](CCCCN)C(=O)N[C@@H](CCCNC(=N)N)C(=O)N[C@@H](CCCCN)C(=O)N[C@@H](Cc1c[nH]c2ccccc12)C(=O)N[C@@H](CCCCN)C(=O)N[C@@H](CCCNC(=N)N)C(=O)N[C@@]1(C)CCC/C=C\CCC[C@@](C)(C(=O)N[C@@H](CCCCN)C(=O)N[C@@]2(C)CCC/C=C\CCC[C@@](C)(C(=O)N[C@@H](CC(C)C)C(=O)N[C@@H](CCCCN)C(=O)N[C@@H](CCCCN)C(=O)N3CCC[C@H]3C(=O)N[C@H](C(=O)N[C@@H](CCCNC(=N)N)C(N)=O)C(C)C)NC(=O)[C@H](CCCNC(=N)N)NC(=O)[C@H](Cc3c[nH]c4ccccc34)NC(=O)[C@H](Cc3ccc(O)cc3)NC2=O)NC(=O)[C@H](CC(C)C)NC(=O)[C@H](CCCCN)NC(=O)[C@H](Cc2ccccc2)NC1=O` (Ac-KKRKWKR[S5]FKL[S5]K[S5]YWR[S5]LKKPVR-NH2; staple (Z) 8-12, 14-18), the minimum inhibitory concentration (MIC) is 10.1 µg/mL (≈ 3.05 µM) with Klebsiella pneumoniae, 2.5 µg/mL (≈ 0.754 µM) in the series on Staphylococcus aureus, 2.6 µg/mL (≈ 0.784 µM) in the series on Pseudomonas aeruginosa and 2.4 µg/mL (≈ 0.724 µM) in the series with Streptococcus pneumoniae. Further, in series [1], the HC50 at 1 h is 26.5 µg/mL.

For `CC(=O)N[C@@H](CCCCN)C(=O)N[C@@H](CCCCN)C(=O)N[C@@H](CCCNC(=N)N)C(=O)N[C@H](C(=O)N[C@@H](CCCCN)C(=O)N[C@@H](CCCCN)C(=O)N[C@@H](CCCNC(=N)N)C(=O)N[C@@]1(C)CCC/C=C\CCC[C@@](C)(C(=O)N[C@@H](CCCCN)C(=O)N[C@@]2(C)CCC/C=C\CCC[C@@](C)(C(=O)N[C@@H](CC(C)C)C(=O)N[C@@H](CCCCN)C(=O)N[C@@H](CCCCN)C(=O)N3CCC[C@H]3C(=O)N[C@H](C(=O)N[C@@H](CCCNC(=N)N)C(N)=O)C(C)C)NC(=O)[C@H](CCCNC(=N)N)NC(=O)[C@H](Cc3c[nH]c4ccccc34)NC(=O)[C@H](Cc3ccc(O)cc3)NC2=O)NC(=O)[C@H](CC(C)C)NC(=O)[C@H](CCCCN)NC(=O)[C@H](Cc2ccccc2)NC1=O)C(C)C` (Ac-KKRVKKR[S5]FKL[S5]K[S5]YWR[S5]LKKPVR-NH2; staple (Z) 8-12, 14-18), the MIC in the series with Klebsiella pneumoniae is 2.5 µg/mL (≈ 0.774 µM); with Staphylococcus aureus, 2.5 µg/mL (≈ 0.774 µM); with Pseudomonas aeruginosa it was 2.6 µg/mL (≈ 0.805 µM); in the series on Streptococcus pneumoniae, 2.4 µg/mL (≈ 0.743 µM). In series [1], the HC50 at 1 h was 56.3 µg/mL.

`CC(=O)N[C@@H](CCCCN)C(=O)N[C@@H](CCCCN)C(=O)N[C@@H](CCCNC(=N)N)C(=O)N[C@H](C(=O)N[C@@H](CCCCN)C(=O)N[C@@H](CCCCN)C(=O)N[C@@H](CCCNC(=N)N)C(=O)N[C@@]1(C)CCC/C=C\CCC[C@@](C)(C(=O)N[C@@H](CCCCN)C(=O)N[C@@]2(C)CCC/C=C\CCC[C@@](C)(C(=O)N[C@@H](CC(C)C)C(=O)N[C@@H](CCCCN)C(=O)N[C@@H](CCCCN)C(=O)N3CCC[C@H]3C(=O)N[C@H](C(=O)N[C@@H](CCCNC(=N)N[C@@H]3O[C@H](CO)[C@@H](O[C@H]4O[C@H](CO)[C@@H](O[C@H]5O[C@H](CO)[C@@H](O)[C@H](O)[C@H]5O)[C@H](O)[C@H]4O)[C@H](O)[C@H]3O)C(N)=O)C(C)C)NC(=O)[C@H](CCCNC(=N)N)NC(=O)[C@H](Cc3c[nH]c4ccccc34)NC(=O)[C@H](Cc3ccc(O)cc3)NC2=O)NC(=O)[C@H](CC(C)C)NC(=O)[C@H](CCCCN)NC(=O)[C@H](Cc2ccccc2)NC1=O)C(C)C` (Ac-KKRVKKR[S5]FKL[S5]K[S5]YWR[S5]LKKPV[X1]-NH2; staple (Z) 8-12, 14-18): the MIC in the series with Klebsiella pneumoniae stood at 1.1 µg/mL (≈ 0.296 µM); with Staphylococcus aureus it was 1.1 µg/mL (≈ 0.296 µM); in the series on Pseudomonas aeruginosa it was 2.6 µg/mL (≈ 0.7 µM); in the series with Streptococcus pneumoniae, 1.1 µg/mL (≈ 0.296 µM). Besides, the HC50 at 1 h in series [1] worked out at 80.8 µg/mL.
